Assays:
MMP-13 = target: T1, MMP-13 (Homo sapiens, UniProt P45452); assay: In-vitro fluorescence assay of MMP-13 activity; assay type: biochemical; details: recombinant human catalytic domain of MMP-13; read-out: MMP-13 IC50
T1 construct: made in house

MMP-2 = target: T2, MMP-2 (Homo sapiens, UniProt P08253); assay: In-vitro fluorescence assay of MMP-2 activity; assay type: biochemical; details: recombinant human MMP-2; read-out: MMP-2 IC50
T2 construct: purchased Oncogene Research Products (Calbiochem) PF023
T2 sequence (P08253 110-660): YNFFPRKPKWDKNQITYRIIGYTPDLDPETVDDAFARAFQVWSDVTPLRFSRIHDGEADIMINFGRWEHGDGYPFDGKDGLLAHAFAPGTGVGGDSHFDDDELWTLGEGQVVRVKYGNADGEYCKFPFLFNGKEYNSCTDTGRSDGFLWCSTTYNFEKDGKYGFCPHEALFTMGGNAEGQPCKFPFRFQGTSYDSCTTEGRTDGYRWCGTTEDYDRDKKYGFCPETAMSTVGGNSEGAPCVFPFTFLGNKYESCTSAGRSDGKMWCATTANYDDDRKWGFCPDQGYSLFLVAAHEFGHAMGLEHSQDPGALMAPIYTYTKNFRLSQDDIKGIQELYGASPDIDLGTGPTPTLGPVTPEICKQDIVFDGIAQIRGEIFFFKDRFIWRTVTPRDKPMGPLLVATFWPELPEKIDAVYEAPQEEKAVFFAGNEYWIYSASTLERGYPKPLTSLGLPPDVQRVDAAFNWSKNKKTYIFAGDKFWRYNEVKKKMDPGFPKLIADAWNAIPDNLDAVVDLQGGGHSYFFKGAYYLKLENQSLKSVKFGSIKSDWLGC
Text: A continuous assay was used in which the substrate is a synthetic peptide containing a fluorescent group (7-methoxycoumarin; Mca) which is quenched by energy transfer to a 2,4-dinitrophenyl group. […] The source of enzyme in the assay was the recombinant human MMP-2 (66 kDa) purchased from Oncogene Research Products (catalog number PF023 from Calbiochem). The substrate used was Mca-PQGL-(3-[2,4-dinitrophenyl]-L-2,3-diaminopropionyl)-AR-OH (denoted as Wammp-5, custom synthesized by AnaSpec, Inc.). The assay buffer consisted of 50 mM Hepes (pH 7.4), 100 mM NaCl, 5 mM CaCl2, and 0.005% Brij-35. […] The enzymatic reactions were initiated by adding the substrate to a final concentration of 20 μM, and mixing 10 times with a pipette. The final DMSO concentration in the assay was 6.0%.
Plots of the inhibitor concentration vs. the percent inhibition were fit to the following equation: y=(a−d)/[1+(x/c)^b]+d, a general sigmoidal curve with Hill slope, a to d. x is the inhibitor concentration under test. y is the percent inhibition. a is the limiting response as x approaches zero. As x increases without bound, y tends toward its limit d. c is the inflection point (IC50) for the curve. That is, y is halfway between the lower and upper asymptotes when x=c. b is the slope factor or Hill coefficient.

## Cc1c(C(=O)Nc2ccc(-c3ccc(S(=O)(=O)N[C@H](C(=O)O)C(C)C)cc3)cc2)oc2cccc(NC(=O)OC(C)(C)C)c12 [Example 59, L-2-{4′-[(4-tert-Butoxycarbonylamino-3-methyl-benzofuran-2-carbonyl)-amino]-biphenyl-4-sulfonylamino}-3-methyl-butyric acid]
MMP-13
  IC50: 32 nM
MMP-2
  IC50: 3270 nM

## CNc1cccc2oc(C(=O)Nc3ccc(-c4ccc(S(=O)(=O)N[C@H](C(=O)O)C(C)C)cc4)cc3)c(C)c12 [Example 60, L-3-Methyl-2-{4′-[(3-methyl-4-methylamino-benzofuran-2-carbonyl)-amino]-biphenyl-4-sulfonylamino}-butyric acid]
MMP-13
  IC50: 8 nM
MMP-2
  IC50: 886 nM

## Cc1c(C(=O)Nc2ccc(-c3ccc(S(=O)(=O)N[C@H](C(=O)O)C(C)C)cc3)cc2)oc2cccc(N)c12 [Example 61, L-2-{4′-[(4-Amino-3-methyl-benzofuran-2-carbonyl)-amino]-biphenyl-4-sulfonylamino}-3-methyl-butyric acid]
MMP-13
  IC50: 4.3 nM
MMP-2
  IC50: 323 nM

## Cc1c(C(=O)Nc2ccc(-c3ccc(S(=O)(=O)N[C@H](C(=O)O)C(C)C)cc3)cc2)oc2cccc(N(C)C)c12 [Example 62, L-2-{4′-[(4-Dimethylamino-3-methyl-benzofuran-2-carbonyl)-amino]-biphenyl-4-sulfonylamino}-3-methyl-butyric acid]
MMP-13
  IC50: 6.5 nM
MMP-2
  IC50: 5110 nM

## Cc1c(C(=O)Nc2ccc(-c3ccc(S(=O)(=O)N[C@H](C(=O)O)C(C)C)cc3)cc2)oc2cccc(N3CCCC3)c12 [Example 63, L-3-Methyl-2-{4′-[(3-methyl-4-pyrrolidin-1-yl-benzofuran-2-carbonyl)-amino]-biphenyl-4-sulfonylamino}-butyric acid]
MMP-13
  IC50: 28 nM
MMP-2
  IC50: 5000 nM

## Cc1c(C(=O)Nc2ccc(-c3ccc(S(=O)(=O)N(C)[C@H](C(=O)O)C(C)C)cc3)cc2)oc2cccc(NS(C)(=O)=O)c12 [Example 64, L-2-({4′-[(4-Methanesulfonylamino-3-methyl-benzofuran-2-carbonyl)-amino]-biphenyl-4-sulfonyl}-methyl-amino)-3-methyl-butyric acid]
MMP-13
  IC50: 63 nM
MMP-2
  IC50: 6940 nM

## Cc1c(C(=O)Nc2ccc(-c3ccc(S(=O)(=O)N[C@H](C(=O)O)C(C)O)cc3)cc2)oc2cccc(NS(C)(=O)=O)c12 (stereo partly drawn) [Example 65, L-3-Hydroxy-2-{4′-[(4-methanesulfonylamino-3-methyl-benzofuran-2-carbonyl)-amino]-biphenyl-4-sulfonylamino}-butyric acid]
MMP-13
  IC50: 10.9 nM
MMP-2
  IC50: 2470 nM

## Cc1c(C(=O)Nc2ccc(-c3ccc(S(=O)(=O)N[C@H](C(=O)O)C(C)C)cc3)cc2)oc2cccc(NC(=O)C(F)(F)F)c12 [Example 67, L-3-Methyl-2-(4′-{[3-methyl-4-(2,2,2-trifluoro-acetylamino)-benzofuran-2-carbonyl]-amino}-biphenyl-4-sulfonylamino)-butyric acid]
MMP-13
  IC50: 20 nM
MMP-2
  IC50: 5750 nM

## CCS(=O)(=O)Nc1cccc2oc(C(=O)Nc3ccc(-c4ccc(S(=O)(=O)N[C@H](C(=O)O)C(C)C)cc4)cc3)c(C)c12 [Example 68, L-2-{4′-[(4-Ethanesulfonylamino-3-methyl-benzofuran-2-carbonyl)-amino]-biphenyl-4-sulfonylamino}-3-methyl-butyric acid]
MMP-13
  IC50: 12 nM
MMP-2
  IC50: 1650 nM

## Cc1c(C(=O)Nc2ccc(-c3ccc(S(=O)(=O)N[C@H](C(=O)O)C(C)C)cc3)cc2)oc2cccc(NS(=O)(=O)C(C)C)c12 [Example 69, L-3-Methyl-2-(4′-{[3-methyl-4-(propane-2-sulfonylamino)-benzofuran-2-carbonyl]-amino}-biphenyl-4-sulfonylamino)-butyric acid]
MMP-13
  IC50: 16 nM
MMP-2
  IC50: 2340 nM

## CCS(=O)(=O)N(C)c1cccc2oc(C(=O)Nc3ccc(-c4ccc(S(=O)(=O)N[C@H](C(=O)O)C(C)C)cc4)cc3)c(C)c12 [Example 70, L-2-(4′-{[4-(Ethanesulfonyl-methyl-amino)-3-methyl-benzofuran-2-carbonyl]-amino}-biphenyl-4-sulfonylamino)-3-methyl-butyric acid]
MMP-13
  IC50: 14 nM
MMP-2
  IC50: 3470 nM

## Cc1c(C(=O)Nc2ccc(-c3ccc(S(=O)(=O)N[C@H](C(=O)O)C(C)C)cc3)cc2)oc2cccc(NS(=O)(=O)c3ccccc3)c12 [Example 71, L-2-{4′-[(4-Benzenesulfonylamino-3-methyl-benzofuran-2-carbonyl)-amino]-biphenyl-4-sulfonylamino}-3-methyl-butyric acid]
MMP-13
  IC50: 8.1 nM
MMP-2
  IC50: 6020 nM

## Cc1c(C(=O)Nc2ccc(-c3ccc(S(=O)(=O)N[C@H](C(=O)O)C(C)C)cc3)cc2)oc2cccc(NS(=O)(=O)c3cccs3)c12 [Example 72, L-3-Methyl-2-(4′-{[3-methyl-4-(thiophene-2-sulfonylamino)-benzofuran-2-carbonyl]-amino}-biphenyl-4-sulfonylamino)-butyric acid]
MMP-13
  IC50: 8.5 nM
MMP-2
  IC50: 3980 nM

## Cc1c(C(=O)Nc2ccc(-c3ccc(S(=O)(=O)N[C@H](C(=O)O)C(C)C)cc3)cc2)oc2cccc(N3CCCS3(=O)=O)c12 [Example 73, L-2-(4′-{[4-(1,1-Dioxo-1λ^6-isothiazolidin-2-yl)-3-methyl-benzofuran-2-carbonyl]-amino}-biphenyl-4-sulfonylamino)-3-methyl-butyric acid]
MMP-13
  IC50: 11.9 nM
MMP-2
  IC50: 4770 nM

## CC(C)[C@H](NS(=O)(=O)c1ccc(-c2ccc(NC(=O)c3cc4cc(Br)ccc4o3)cc2)cc1)C(=O)O [Example 84, N-[(4′-{[(5-Bromo-1-benzofuran-2-yl)carbonyl]amino}-1,1′-biphenyl-4-yl)sulfonyl]-L-valine]
MMP-13
  IC50: 0.6 nM
MMP-2
  IC50: 0.9 nM

## CCc1ccc2oc(C(=O)Nc3ccc(-c4ccc(S(=O)(=O)N[C@H](C(=O)O)C(C)C)cc4)cc3)c(C)c2c1OC [Example 86, N-[(4′-{[(5-Ethyl-4-methoxy-3-methyl-1-benzofuran-2-yl)carbonyl]amino}-1,1′-biphenyl-4-yl)sulfonyl]-L-valine]
MMP-13
  IC50: 3.8 nM
MMP-2
  IC50: 2500 nM

## CCc1cccc2oc(C(=O)Nc3ccc(-c4ccc(S(=O)(=O)N[C@H](C(=O)O)C(C)C)cc4)cc3)c(C)c12 [Example 87, N-[(4′-{[(4-Ethyl-3-methyl-1-benzofuran-2-yl)carbonyl]amino}-1,1′-biphenyl-4-yl)sulfonyl]-L-valine]
MMP-13
  IC50: 2.3 nM
MMP-2
  IC50: 1410 nM

## CCc1ccc2oc(C(=O)Nc3ccc(-c4ccc(S(=O)(=O)N[C@H](C(=O)O)C(C)C)cc4)cc3)c(C)c2c1OC(C)C [Example 88, N-[(4′-{[(5-Ethyl-4-isopropoxy-3-methyl-1-benzofuran-2-yl)carbonyl]amino}-1,1′-biphenyl-4-yl)sulfonyl]-L-valine]
MMP-13
  IC50: 27 nM
MMP-2
  IC50: 7000 nM

## CCc1ccc2oc(C(=O)Nc3ccc(-c4ccc(S(=O)(=O)N[C@H](C(=O)O)C(C)C)cc4)cc3)c(C)c2c1OCc1ccccc1 [Example 89, N-{[4′-({[4-(Benzyloxy)-5-ethyl-3-methyl-1-benzofuran-2-yl]carbonyl}amino)-1,1′-biphenyl-4-yl]sulfonyl}-L-valine]
MMP-13
  IC50: 67 nM
MMP-2
  IC50: 4340 nM

## CCc1ccc2oc(C(=O)Nc3ccc(-c4ccc(S(=O)(=O)N[C@H](C(=O)O)C(C)C)cc4)cc3)c(C)c2c1O [Example 90, N-[(4′-{[(5-Ethyl-4-hydroxy-3-methyl-1-benzofuran-2-yl)carbonyl]amino}-1,1′-biphenyl-4-yl)sulfonyl]-L-valine]
MMP-13
  IC50: 7.1 nM
MMP-2
  IC50: 1760 nM

## Cc1c(C(=O)Nc2ccc(-c3ccc(S(=O)(=O)N[C@H](C(=O)O)C(C)C)cc3)cc2)oc2cccc(C3COC(C)(C)O3)c12 (stereo partly drawn) [Example 91, N-{[4′-({[4-(2,2-Dimethyl-1,3-dioxolan-4-yl)-3-methyl-1-benzofuran-2-yl]carbonyl}amino)-1,1′-biphenyl-4-yl]sulfonyl}-L-valine]
MMP-13
  IC50: 6.9 nM
MMP-2
  IC50: 2230 nM

## Cc1c(C(=O)Nc2ccc(-c3ccc(S(=O)(=O)N[C@H](C(=O)O)C(C)C)cc3)cc2)oc2cccc(CO)c12 [Example 92, N-{[4′-({[4-(Hydroxymethyl)-3-methyl-1-benzofuran-2-yl]carbonyl}amino)-1,1′-biphenyl-4-yl]sulfonyl}-L-valine]
MMP-13
  IC50: 25 nM
MMP-2
  IC50: 3760 nM

## Cc1cccc2oc(C(=O)Nc3ccc(-c4ccc(S(=O)(=O)N[C@H](C(=O)O)C(C)C)cc4)cc3)c(C)c12 [Example 93, N-[(4′-{[(3,4-Dimethyl-1-benzofuran-2-yl)carbonyl]amino}-1,1′-biphenyl-4-yl)sulfonyl]-L-valine]
MMP-13
  IC50: 4.8 nM
MMP-2
  IC50: 1150 nM

## CC(=O)c1cccc2oc(C(=O)Nc3ccc(-c4ccc(S(=O)(=O)N[C@H](C(=O)O)C(C)C)cc4)cc3)c(C)c12 [Example 94, N-[(4′-{[(4-Acetyl-3-methyl-1-benzofuran-2-yl)carbonyl]amino}-1,1′-biphenyl-4-yl)sulfonyl]-L-valine]
MMP-13
  IC50: 4.5 nM
MMP-2
  IC50: 673 nM

## Cc1c(C(=O)Nc2ccc(-c3ccc(S(=O)(=O)N[C@H](C(=O)O)C(C)C)cc3)cc2)oc2cccc(C(C)O)c12 (stereo partly drawn) [Example 95, N-{[4′-({[4-(1-Hydroxyethyl)-3-methyl-1-benzofuran-2-yl]carbonyl}amino)-1,1′-biphenyl-4-yl]sulfonyl}-L-valine]
MMP-13
  IC50: 8.4 nM
MMP-2
  IC50: 2070 nM
